Assay results: patent publication US20100120752A1, “MUSCARINIC AGONISTS TO TREAT IMPULSE CONTROL DISORDERS” (Solvay Pharmaceuticals, B.V., priority 2007, published 2010)

Experiments:
[1] = test system: MK801 induced increase of anticipatory responses of rats; assay: 5-Choice Serial Reaction Time task, interaction studies against MK801; assay type: in vivo, rat; details: for % correct resp / nr anticipatory resp / nr of correct resp / nr of fault resp / nr of missed resp / persevering resp / total nr of resp: ±SEM
Description: (§1) Male Wistar rats weighing 330-450 g (Harlan, The Netherlands) were housed in pairs under a 12-h light/dark cycle (lights off at 7:00 a.m.) and had daily access to a limited amount of food that kept their body weight at approximately 85% of the free feeding weight. Water was available ad libitum. All procedures were in compliance with the European Communities Council Directive of Nov. 24, 1986 (86/609 EEC).
(§2) Standard 5-CSRT boxes from MED associates Inc. Georgia, Vt. US were used. The curved wall of the chamber contained five 1.6 cm2 holes, 2.2 cm deep, 2 cm above floor level. […] In every hole a yellow stimulus light was presented. A food dispenser was located at the opposite wall. The box was illuminated by a 28 Volt 100 mA house light. The 5-CSRT boxes were placed in sound attenuating cubicles. On-line control of the apparatus and data collection were performed by a MED-PC experimental apparatus programming system (Tatham, 1989), running on a Dell Optiplex GX1 PC.
(§3) Rats were first trained to collect reinforcement pellets from the food dispenser and to collect reinforcements that were placed in the 5 holes in order to habituate the animals to the 5-CSRT task apparatus. Next, training of the 5-CSRT task started. These sessions started by illumination of the light in one of the holes for 30 seconds (stimulus duration). A response by the rat into the illuminated hole or a response in that particular hole for a short period of time after the illumination (the limited hold 60 sec) was rewarded with the delivery of a food pellet, termination of the trial and a correct response was recorded. The light stimulus was presented in each of the holes 20 times during a session (total of 100 presentations), and the order of presentations was randomized. […] After termination of the trial a variable inter-trial interval was started (1, 3, 5, 7 or 9 sec) after which the next trial was started. Upon reaching a 75% correct performance level the duration of illumination of the light stimulus was reduced until a presentation of 0.5 sec (from 30 to 20, 10, 5, 2, 1, 0.9; 0.8; 0.7; 0.6; 0.5.) and a limited hold of 5 sec (in three steps from 30 to 20, 10 and 5 sec), was reached. (Robbins, 1993).
(§4) The following parameters were measured (Muir, 1996):
(§5) Accuracy: the percentage correct responses divided by the total responses made.
(§6) Errors of omission: the number of missed stimulus presentations.
(§7) Correct responses: the number of correct responses.
(§8) Fault responses: the number of responses in the wrong hole.
(§9) Anticipatory responses: the number of premature responses made preceding the presentation of the light stimulus.
(§10) Persevering responses: responses emitted after an incorrect or correct response.
Both xanomeline and desmethylclozapine were each tested in the same dose range against 0.05 mg/kg (s.c.) MK801, a dose shown to elicit unequivocal impulsive behavior (see Table 1).

Male Wistar rats = assay: 5-Choice Serial Reaction Time task, xanomeline or desmethylclozapine alone; assay type: in vivo, rat; details: for number of anticipatory responses / number of correct responses / number of fault responses / number of missed responses / percentage of correct responses / persevering responses / total number of responses: ±S.E.M.
Description: as §1, §2, §3, §4, §5, §6, §7, §8, §9, §10
Xanomeline, a mixed muscarine-M1 and muscarine-M4 agonist, and desmethylclozapine, a muscarinic-M1 agonist and muscarinic-M4 antagonist, were each tested in a Latin hexagon design, meaning that each rat received all test-dosages (0, 1, 3 and 10 mg/kg i.p.) in a random order.

[2] = 1 mg/kg against 0.05 mg/kg (s.c.) MK801
[3] = 3 mg/kg against 0.05 mg/kg (s.c.) MK801
[4] = 10 mg/kg against 0.05 mg/kg (s.c.) MK801

**Q.** CCCCCCOc1nsnc1C1=CCCN(C)C1 [xanomeline] was tested. Which “% correct resp” value [1, 2] did it give?
**A.** The value was 70.2 ± 3.8%.

**Q.** What about the nr anticipatory resp [1, 2] of the same compound?
**A.** Its nr anticipatory resp is 75.3 ± 10.5.

**Q.** And the “nr of correct resp” value [1, 2]?
**A.** Its value is 58.7 ± 4.4.

**Q.** And the “nr of fault resp” value [1, 2]?
**A.** The value was 23.8 ± 2.4.

**Q.** What about the “nr of missed resp” value [1, 2] of the same compound?
**A.** Its value is 17.6 ± 3.1.

**Q.** What about the persevering resp [1, 2] of the same compound?
**A.** The persevering resp was 15.3 ± 2.5.

**Q.** What about the “total nr of resp” value [1, 2] of the same compound?
**A.** Its value is 82.4 ± 3.1.

**Q.** What about the “% correct resp” value [1, 3] of the same compound?
**A.** Its value is 71.6 ± 2.4%.

**Q.** And the nr anticipatory resp [1, 3]?
**A.** Its nr anticipatory resp is 99.3 ± 11.1.

**Q.** And the “nr of correct resp” value [1, 3]?
**A.** The value was 57.4 ± 2.7.

**Q.** What about the “nr of fault resp” value [1, 3] of the same compound?
**A.** Its value is 22.7 ± 1.9.

**Q.** What about the “nr of missed resp” value [1, 3] of the same compound?
**A.** The value was 19.9 ± 2.4.

**Q.** What about the persevering resp [1, 3] of the same compound?
**A.** The persevering resp was 14.1 ± 3.5.

**Q.** And the “total nr of resp” value [1, 3]?
**A.** The value was 80.1 ± 2.4.

**Q.** What about the “% correct resp” value [1, 4] of the same compound?
**A.** The value was 74.4 ± 2.8%.

**Q.** And the nr anticipatory resp [1, 4]?
**A.** Its nr anticipatory resp is 47.5 ± 8.4.

**Q.** What about the “nr of correct resp” value [1, 4] of the same compound?
**A.** Its value is 50.9 ± 2.4.

**Q.** What about the “nr of fault resp” value [1, 4] of the same compound?
**A.** The value was 18.0 ± 2.2.

**Q.** And the “nr of missed resp” value [1, 4]?
**A.** The value was 31.1 ± 3.0.

**Q.** And the persevering resp [1, 4]?
**A.** Its persevering resp is 8.5 ± 1.1.

**Q.** What about the “total nr of resp” value [1, 4] of the same compound?
**A.** The value was 68.9 ± 3.0.

**Q.** And the “effect on increase in anticipatory responses induced by MK801” value ([1]; table 3)?
**A.** Its value is “antagonize”.

**Q.** What about the “effect on increase in persevering responses induced by MK801” value ([1]; table 3) of the same compound?
**A.** Its value is “antagonize”.

**Q.** What about the “number of anticipatory responses” value (Male Wistar rats; 1 mg/kg i.p.) of the same compound?
**A.** Its value is 58.0 ± 7.9.

**Q.** And the “number of correct responses” value (Male Wistar rats; 1 mg/kg i.p.)?
**A.** The value was 53.0 ± 2.4.

**Q.** And the “number of fault responses” value (Male Wistar rats; 1 mg/kg i.p.)?
**A.** The value was 22.7 ± 1.6.

**Q.** What about the “number of missed responses” value (Male Wistar rats; 1 mg/kg i.p.) of the same compound?
**A.** Its value is 24.3 ± 2.4.

**Q.** And the “percentage of correct responses” value (Male Wistar rats; 1 mg/kg i.p.)?
**A.** The value was 70.0 ± 2.1%.

**Q.** What about the persevering responses (Male Wistar rats; 1 mg/kg i.p.) of the same compound?
**A.** Its persevering responses is 6.3 ± 1.1.

**Q.** What about the “total number of responses” value (Male Wistar rats; 1 mg/kg i.p.) of the same compound?
**A.** The value was 75.1 ± 2.4.

**Q.** What about the “number of anticipatory responses” value (Male Wistar rats; 3 mg/kg i.p.) of the same compound?
**A.** The value was 60.8 ± 4.9.

**Q.** What about the “number of correct responses” value (Male Wistar rats; 3 mg/kg i.p.) of the same compound?
**A.** Its value is 51.2 ± 2.5.

**Q.** And the “number of fault responses” value (Male Wistar rats; 3 mg/kg i.p.)?
**A.** The value was 21.7 ± 1.8.

**Q.** And the “number of missed responses” value (Male Wistar rats; 3 mg/kg i.p.)?
**A.** The value was 27.2 ± 2.2.

**Q.** And the “percentage of correct responses” value (Male Wistar rats; 3 mg/kg i.p.)?
**A.** The value was 70.2 ± 2.5%.

**Q.** And the persevering responses (Male Wistar rats; 3 mg/kg i.p.)?
**A.** Its persevering responses is 6.7 ± 1.4.

**Q.** And the “total number of responses” value (Male Wistar rats; 3 mg/kg i.p.)?
**A.** Its value is 72.8 ± 2.2.

**Q.** And the “number of anticipatory responses” value (Male Wistar rats; 10 mg/kg i.p.)?
**A.** Its value is 21.5 ± 6.4.

**Q.** And the “number of correct responses” value (Male Wistar rats; 10 mg/kg i.p.)?
**A.** The value was 37.2 ± 2.6.

**Q.** And the “number of fault responses” value (Male Wistar rats; 10 mg/kg i.p.)?
**A.** Its value is 15.0 ± 1.8.

**Q.** And the “number of missed responses” value (Male Wistar rats; 10 mg/kg i.p.)?
**A.** Its value is 46.8 ± 3.7.

**Q.** What about the “percentage of correct responses” value (Male Wistar rats; 10 mg/kg i.p.) of the same compound?
**A.** Its value is 72.1 ± 2.3%.

**Q.** And the persevering responses (Male Wistar rats; 10 mg/kg i.p.)?
**A.** The persevering responses was 4.9 ± 0.9.

**Q.** And the “total number of responses” value (Male Wistar rats; 10 mg/kg i.p.)?
**A.** Its value is 53.2 ± 3.7.

**Q.** And the “effect on number of anticipatory responses” value (Male Wistar rats; at 10 mg/kg, table 2)?
**A.** The value was “reduced”.
